Laboratory results published in ChEMBL document CHEMBL1201862, “PubChem BioAssay data set” (2004).
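Interpolation was linear, between the two tested concentrations surrounding the appropriate level; five concentrations were tested over 48 hours in 96-well plates. GI50 is the concentration that inhibits growth by half.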 Calls of active or inactive are those of the source. No stated cut-off is given here; in the data, active = GI50 up to about 1.1 µM and inactive = higher.

Tests used:
Experiment in all cases: growth of human tumour cells (NCI), 48 h
A498 = tested on: A498
A549 = tested on: A549
ACHN = tested on: ACHN
CAKI-1 = tested on: CAKI-1
CCRF-CEM = tested on: CCRF-CEM
COLO 205 = tested on: COLO 205
DLD-1 = tested on: DLD-1
DMS-114 = tested on: DMS-114
DMS-273 = tested on: DMS-273
EKVX = tested on: EKVX
HCC 2998 = tested on: HCC 2998
HCT-116 = tested on: HCT-116
HCT-15 = tested on: HCT-15
HOP-18 = tested on: HOP-18
HOP-62 = tested on: HOP-62
HOP-92 = tested on: HOP-92
HT-29 = tested on: HT-29
IGROV-1 = tested on: IGROV-1
K562 = tested on: K562
KM-20L2 = tested on: KM-20L2
KM12 = tested on: KM12
LXFL 529 = tested on: LXFL 529
M14 = tested on: M14
M19-MEL = tested on: M19-MEL
MOLT-4 = tested on: MOLT-4
Malme-3M = tested on: Malme-3M
NCI-H226 = tested on: NCI-H226
NCI-H23 = tested on: NCI-H23
NCI-H522 = tested on: NCI-H522
OVCAR-3 = tested on: OVCAR-3
OVCAR-4 = tested on: OVCAR-4
OVCAR-5 = tested on: OVCAR-5
OVCAR-8 = tested on: OVCAR-8
RXF 631 = tested on: RXF 631
SF-268 = tested on: SF-268
SF-295 = tested on: SF-295
SF-539 = tested on: SF-539
SK-MEL-28 = tested on: SK-MEL-28
SK-MEL-2 = tested on: SK-MEL-2
SK-MEL-5 = tested on: SK-MEL-5
SK-OV-3 = tested on: SK-OV-3
SN12C = tested on: SN12C
SNB-75 = tested on: SNB-75
SNB-78 = tested on: SNB-78
SR = tested on: SR
SW-620 = tested on: SW-620
TK-10 = tested on: TK-10
U-251 = tested on: U-251
UACC-257 = tested on: UACC-257
UACC-62 = tested on: UACC-62
UO-31 = tested on: UO-31
786-0 = tested on: 786-0
HL-60 = tested on: HL-60
LOX IMVI = tested on: LOX IMVI
NCI-H460 = tested on: NCI-H460
RPMI-8226 = tested on: RPMI-8226
RXF 393 = tested on: RXF 393
SNB-19 = tested on: SNB-19

## O=P(Nc1ccc(Cl)cc1)(Oc1ccccc1)N(CCCl)CCCl (configuration not stated)
A498
  GI50: > 100 µM (inactive)
A549
  GI50: > 100 µM (inactive)
ACHN
  GI50: > 100 µM (inactive)
CAKI-1
  GI50: > 100 µM (inactive)
CCRF-CEM
  GI50: > 100 µM (inactive)
COLO 205
  GI50: > 100 µM (inactive)
DLD-1
  GI50: > 100 µM (inactive)
DMS-114
  GI50: > 100 µM (inactive)
DMS-273
  GI50: > 100 µM (inactive)
EKVX
  GI50: > 100 µM (inactive)
HCC 2998
  GI50: > 100 µM (inactive)
HCT-116
  GI50: > 100 µM (inactive)
HCT-15
  GI50: > 100 µM
HOP-18
  GI50: > 100 µM (inactive)
HOP-62
  GI50: > 100 µM (inactive)
HOP-92
  GI50: > 100 µM (inactive)
HT-29
  GI50: > 100 µM (inactive)
IGROV-1
  GI50: > 100 µM (inactive)
K562
  GI50: > 100 µM (inactive)
KM-20L2
  GI50: > 100 µM (inactive)
KM12
  GI50: > 100 µM (inactive)
LXFL 529
  GI50: > 100 µM (inactive)
M14
  GI50: > 100 µM (inactive)
M19-MEL
  GI50: > 100 µM (inactive)
MOLT-4
  GI50: > 100 µM (inactive)
Malme-3M
  GI50: > 100 µM (inactive)
NCI-H226
  GI50: > 100 µM (inactive)
NCI-H23
  GI50: > 100 µM (inactive)
NCI-H522
  GI50: > 100 µM (inactive)
OVCAR-3
  GI50: > 100 µM (inactive)
OVCAR-4
  GI50: > 100 µM (inactive)
OVCAR-5
  GI50: > 100 µM (inactive)
OVCAR-8
  GI50: > 100 µM (inactive)
RXF 631
  GI50: 63.7 µM (inactive)
SF-268
  GI50: > 100 µM (inactive)
SF-295
  GI50: > 100 µM (inactive)
SF-539
  GI50: > 100 µM (inactive)
SK-MEL-28
  GI50: > 100 µM (inactive)
SK-MEL-2
  GI50: 35.5 µM (inactive)
SK-MEL-5
  GI50: > 100 µM (inactive)
SK-OV-3
  GI50: > 100 µM (inactive)
SN12C
  GI50: > 100 µM (inactive)
SNB-75
  GI50: 33.7 µM (inactive)
SNB-78
  GI50: > 100 µM (inactive)
SR
  GI50: > 100 µM (inactive)
SW-620
  GI50: > 100 µM (inactive)
TK-10
  GI50: > 100 µM (inactive)
U-251
  GI50: > 100 µM (inactive)
UACC-257
  GI50: > 100 µM (inactive)
UACC-62
  GI50: > 100 µM (inactive)
UO-31
  GI50: > 100 µM (inactive)

## COc1cc(C(=O)N2CCc3c([nH]c4c([N+](=O)[O-])c(OC)ccc34)C2C)cc(OC)c1OC (configuration not stated)
786-0
  GI50: > 100 µM (inactive)
A498
  GI50: > 100 µM (inactive)
A549
  GI50: > 100 µM (inactive)
ACHN
  GI50: > 100 µM (inactive)
CAKI-1
  GI50: > 100 µM (inactive)
CCRF-CEM
  GI50: > 100 µM (inactive)
COLO 205
  GI50: > 100 µM (inactive)
DLD-1
  GI50: > 100 µM (inactive)
DMS-114
  GI50: > 100 µM (inactive)
DMS-273
  GI50: > 100 µM (inactive)
EKVX
  GI50: > 100 µM (inactive)
HCC 2998
  GI50: > 100 µM (inactive)
HCT-116
  GI50: > 100 µM (inactive)
HCT-15
  GI50: > 100 µM
HL-60
  GI50: > 100 µM (inactive)
HOP-62
  GI50: > 100 µM (inactive)
HT-29
  GI50: > 100 µM (inactive)
IGROV-1
  GI50: 8.11 µM (inactive)
K562
  GI50: > 100 µM (inactive)
KM-20L2
  GI50: > 100 µM (inactive)
KM12
  GI50: > 100 µM (inactive)
LOX IMVI
  GI50: > 100 µM (inactive)
LXFL 529
  GI50: > 100 µM (inactive)
M14
  GI50: > 100 µM (inactive)
MOLT-4
  GI50: > 100 µM (inactive)
NCI-H226
  GI50: > 100 µM (inactive)
NCI-H23
  GI50: > 100 µM (inactive)
NCI-H460
  GI50: > 100 µM (inactive)
NCI-H522
  GI50: > 100 µM (inactive)
OVCAR-3
  GI50: > 100 µM (inactive)
OVCAR-4
  GI50: > 100 µM (inactive)
OVCAR-5
  GI50: > 100 µM (inactive)
OVCAR-8
  GI50: > 100 µM (inactive)
RPMI-8226
  GI50: > 100 µM (inactive)
RXF 393
  GI50: 26.7 µM (inactive)
RXF 631
  GI50: 79.6 µM (inactive)
SF-268
  GI50: 29.8 µM (inactive)
SF-295
  GI50: > 100 µM (inactive)
SF-539
  GI50: 89.1 µM (inactive)
SK-MEL-28
  GI50: > 100 µM (inactive)
SK-MEL-2
  GI50: > 100 µM (inactive)
SN12C
  GI50: > 100 µM (inactive)
SNB-19
  GI50: > 100 µM (inactive)
SNB-75
  GI50: 40.8 µM (inactive)
SNB-78
  GI50: 58.7 µM (inactive)
SR
  GI50: > 100 µM (inactive)
SW-620
  GI50: > 100 µM (inactive)
TK-10
  GI50: > 100 µM (inactive)
U-251
  GI50: > 100 µM (inactive)
UACC-257
  GI50: > 100 µM (inactive)
UACC-62
  GI50: 20.1 µM (inactive)
UO-31
  GI50: > 100 µM (inactive)

## COc1ccc(/C=C2/CCCC/C2=N/O)cc1
786-0
  GI50: > 100 µM (inactive)
A498
  GI50: 24.2 µM (inactive)
A549
  GI50: > 100 µM (inactive)
ACHN
  GI50: 88.9 µM (inactive)
CCRF-CEM
  GI50: 51.6 µM (inactive)
COLO 205
  GI50: > 100 µM (inactive)
DLD-1
  GI50: 67.5 µM (inactive)
DMS-114
  GI50: 42.6 µM (inactive)
DMS-273
  GI50: 42.7 µM (inactive)
EKVX
  GI50: > 100 µM (inactive)
HCC 2998
  GI50: > 100 µM (inactive)
HCT-116
  GI50: 87.7 µM (inactive)
HCT-15
  GI50: > 100 µM
HL-60
  GI50: > 100 µM (inactive)
HOP-18
  GI50: > 100 µM (inactive)
HOP-62
  GI50: > 100 µM (inactive)
HOP-92
  GI50: 46.1 µM (inactive)
HT-29
  GI50: > 100 µM (inactive)
IGROV-1
  GI50: 41 µM (inactive)
K562
  GI50: > 10 µM (inactive)
KM-20L2
  GI50: > 100 µM (inactive)
KM12
  GI50: > 100 µM (inactive)
LOX IMVI
  GI50: 29.6 µM (inactive)
LXFL 529
  GI50: 66.8 µM (inactive)
M14
  GI50: > 100 µM (inactive)
M19-MEL
  GI50: > 100 µM (inactive)
MOLT-4
  GI50: 42.2 µM (inactive)
Malme-3M
  GI50: > 100 µM (inactive)
NCI-H23
  GI50: 93.1 µM (inactive)
NCI-H460
  GI50: > 100 µM (inactive)
NCI-H522
  GI50: 40.5 µM (inactive)
OVCAR-3
  GI50: > 100 µM (inactive)
OVCAR-4
  GI50: 69.5 µM (inactive)
OVCAR-5
  GI50: > 100 µM (inactive)
OVCAR-8
  GI50: > 100 µM (inactive)
RPMI-8226
  GI50: > 100 µM (inactive)
RXF 393
  GI50: 40.8 µM (inactive)
RXF 631
  GI50: > 100 µM (inactive)
SF-268
  GI50: 57.9 µM (inactive)
SF-295
  GI50: > 100 µM (inactive)
SF-539
  GI50: > 100 µM (inactive)
SK-MEL-28
  GI50: > 100 µM (inactive)
SK-MEL-2
  GI50: > 100 µM (inactive)
SK-OV-3
  GI50: > 100 µM (inactive)
SN12C
  GI50: 75.7 µM (inactive)
SNB-19
  GI50: > 100 µM (inactive)
SNB-75
  GI50: 31.6 µM (inactive)
SNB-78
  GI50: 94.2 µM (inactive)
SW-620
  GI50: > 100 µM (inactive)
TK-10
  GI50: > 100 µM (inactive)
U-251
  GI50: > 100 µM (inactive)
UACC-257
  GI50: > 100 µM (inactive)
UACC-62
  GI50: > 100 µM (inactive)
UO-31
  GI50: > 100 µM (inactive)
